# From ChEMBL document CHEMBL3228036, “A new chemical series active against African trypanosomes: benzyltriphenylphosphonium salts” (J Med Chem, 1979)
# The source made the active and inactive calls. The calls are words filed in the database; no cut-off is given here.
# Tests used:
# [1] = test system: Trypanosoma brucei rhodesiense; experiment: […] activity against Trypanosoma brucei rhodesiense Wellcome CT infected in ICR/HA mouse assessed as curated mouse at 424 mg/kg, sc treated within 2 hrs of parasite infection measured up to 30 days; format: functional, organism-based; set-up: dose 424 mg/kg
# [2] = test system: Trypanosoma brucei rhodesiense; experiment: […] activity against Trypanosoma brucei rhodesiense Wellcome CT infected in ICR/HA mouse assessed as curated mouse at 424 mg/kg, po treated within 2 hrs of parasite infection measured up to 30 days; format: functional, organism-based; set-up: dose 424 mg/kg
# [3] = test system: Trypanosoma brucei rhodesiense; experiment: […] activity against Trypanosoma brucei rhodesiense Wellcome CT infected in ICR/HA mouse assessed as curated mouse at 212 mg/kg, sc treated within 2 hrs of parasite infection measured up to 30 days; format: functional, organism-based; set-up: dose 212 mg/kg
# [4] = test system: Trypanosoma brucei rhodesiense; experiment: […] activity against Trypanosoma brucei rhodesiense Wellcome CT infected in ICR/HA mouse assessed as curated mouse at 212 mg/kg, po treated within 2 hrs of parasite infection measured up to 30 days; format: functional, organism-based; set-up: dose 212 mg/kg
# [5] = test system: Trypanosoma brucei rhodesiense; experiment: […] activity against Trypanosoma brucei rhodesiense Wellcome CT infected in ICR/HA mouse assessed as curated mouse at 106 mg/kg, sc treated within 2 hrs of parasite infection measured up to 30 days; format: functional, organism-based; set-up: dose 106 mg/kg
# [6] = test system: Trypanosoma brucei rhodesiense; experiment: […] activity against Trypanosoma brucei rhodesiense Wellcome CT infected in ICR/HA mouse assessed as curated mouse at 106 mg/kg, po treated within 2 hrs of parasite infection measured up to 30 days; format: functional, organism-based; set-up: dose 106 mg/kg
# [7] = test system: Trypanosoma brucei rhodesiense; experiment: […] activity against Trypanosoma brucei rhodesiense Wellcome CT infected in ICR/HA mouse assessed as curated mouse at 53 mg/kg, sc treated within 2 hrs of parasite infection measured up to 30 days; format: functional, organism-based; set-up: dose 53 mg/kg
# [8] = test system: Trypanosoma brucei rhodesiense; experiment: […] activity against Trypanosoma brucei rhodesiense Wellcome CT infected in ICR/HA mouse assessed as curated mouse at 53 mg/kg, po treated within 2 hrs of parasite infection measured up to 30 days; format: functional, organism-based; set-up: dose 53 mg/kg
# [9] = test system: Trypanosoma brucei rhodesiense; experiment: […] activity against Trypanosoma brucei rhodesiense Wellcome CT infected in ICR/HA mouse assessed as curated mouse at 26.5 mg/kg, sc treated within 2 hrs of parasite infection measured up to 30 days; format: functional
# [10] = test system: Trypanosoma brucei rhodesiense; experiment: […] activity against Trypanosoma brucei rhodesiense Wellcome CT infected in ICR/HA mouse assessed as curated mouse at 13.3 mg/kg, sc treated within 2 hrs of parasite infection measured up to 30 days; format: functional, organism-based; set-up: dose 13.3 mg/kg
# [11] = test system: Trypanosoma brucei rhodesiense; experiment: […] activity against Trypanosoma brucei rhodesiense Wellcome CT infected in ICR/HA mouse assessed as curated mouse at 6.5 mg/kg, po treated within 2 hrs of parasite infection measured up to 30 days; format: functional, organism-based; set-up: dose 6.5 mg/kg
# Mus musculus [12] = experiment: Toxicity in Trypanosoma brucei rhodesiense Wellcome CT infected ICR/HA mouse assessed as mortality at 424 mg/kg, po treated within 2 hrs of parasite infection measured up to 30 days; format: organism-based; set-up: dose 424 mg/kg, route oral; conditions: in vivo
# Mus musculus [13] = experiment: Toxicity in Trypanosoma brucei rhodesiense Wellcome CT infected ICR/HA mouse assessed as mortality at 212 mg/kg, po treated within 2 hrs of parasite infection measured up to 30 days; format: organism-based; set-up: dose 212 mg/kg, route oral; conditions: in vivo
# Mus musculus [14] = experiment: Toxicity in Trypanosoma rhodesiense Wellcome CT infected ICR/HA mouse assessed as mortality at 106 mg/kg, sc treated within 2 hrs of parasite infection measured up to 30 days; format: organism-based; set-up: dose 106 mg/kg, route subcutaneous; conditions: in vivo
# [15] = test system: Trypanosoma brucei rhodesiense; experiment: […] activity against Trypanosoma brucei rhodesiense Wellcome CT infected in ICR/HA mouse assessed as curated mouse at 26.5 mg/kg, po treated within 2 hrs of parasite infection measured up to 30 days; format: functional, organism-based; set-up: dose 26.5 mg/kg
# [16] = test system: Trypanosoma brucei rhodesiense; experiment: […] activity against Trypanosoma brucei rhodesiense Wellcome CT infected in ICR/HA mouse assessed as curated mouse at 13.3 mg/kg, po treated within 2 hrs of parasite infection measured up to 30 days; format: functional, organism-based; set-up: dose 13.3 mg/kg
# Mus musculus [17] = experiment: Toxicity in Trypanosoma brucei rhodesiense Wellcome CT infected ICR/HA mouse assessed as mortality at 424 mg/kg, sc treated within 2 hrs of parasite infection measured up to 30 days; format: organism-based; set-up: dose 424 mg/kg, route subcutaneous; conditions: in vivo
SMILES,Activity [1],Activity [2],Activity [3],Activity [4],Activity [5],Activity [6],Activity [7],Activity [8],Activity ([9]; route subcutaneous),Activity [10],Activity [11],Activity (Mus musculus [12]),Activity (Mus musculus [13]),Activity (Mus musculus [14]),Activity [9],Activity [15],Activity [16],Activity (Mus musculus [17])
N=C(N)c1ccc(/C=C/c2ccc(C(=N)N)cc2)cc1 [STILBAMIDINE],Active,Active,Active,Active,Active,Active,Active,Active,98%,Active,inactive,,,,,,,
FC(F)(F)c1ccc(C[P+](c2ccccc2)(c2ccccc2)c2ccccc2)cc1.[Cl-],inactive,inactive,,inactive,,inactive,,inactive,,inactive,,Toxic,Toxic,Toxic,inactive,inactive,inactive,Toxic
